The nature of series [1]: Determination of the dissolution rate (500 ml medium, 37° C., 50 r/min, HPLC). The class given is physicochemical. Here is the method:
(50 r/min). At 5 min, 10 min, 15 min, 20 min, 30 min, 45 min and 60 min, the concentrations of lenvatinib in the medium were determined by using high performance liquid chromatography.

The nature of series [2]: Stability study of crystal form (XRPD before and after placement). In kind it is physicochemical.
The nature of series [3]: Pharmacokinetic study in rats. The class given is in vivo. The settings on record: male, rat, plasma, po; SD rats, intragastric 10 mg/kg, suspension in oil, mean ± SD. Here is the method: About 20 mg of the test drug was taken, added into 8 mL of vegetable oil and shaken well, to prepare a 2.5 mg/mL suspension.
6 SD rats, all males, 200-220 g, provided by Chengdu Dashuo Biotechnology Co., Ltd.
The rats were intragastrically administrated with 10 mg/kg of the drug. Before administration and at 5 min, 15 min, 30 min, 1 h, 2 h, 4 h, 6 h, 8 h, 24 h after administration, 0.2 mL of jugular blood was taken and placed in EDTA-K2 anticoagulant tube, centrifuged for 10 min at 3000 r/min. The plasma was separated and frozen in the refrigerator at −80° C. After all blood collections were completed, the blood drug concentration in each blood sample was analyzed and determined autonomously, and the parameters of the test drugs (Tmax, time to maximum plasma concentration; Cmax, maximum plasma concentration; AUClast) were calculated.

For series [4] the following is noted: prior art WO2018164436; cited from earlier work.
[5] abbreviates: pH 1.0 medium (hydrochloric acid), 5 min.
Setting [6] is: pH 6.8 medium (potassium dihydrogen phosphate buffer), 5 min.

Structures can show the parent of a compound that is named as a salt.

Turning to `COc1cc2nccc(Oc3ccc(NC(=O)NC4CC4)c(Cl)c3)c2cc1C(N)=O` [Crystal form X, lenvatinib mesylate], the “concentration of lenvatinib in the medium” value (“concentration of lenvatinib” below) in series [1] (setting [5]) is 1480 µg/mL; in series [1] (pH 1.0 medium, 10 min), 1540 µg/mL; in series [1] (pH 1.0 medium, 15 min), 1540 µg/mL; in series [1] (pH 1.0 medium, 20 min), 1520 µg/mL; in series [1] (pH 1.0 medium, 30 min) it was 1560 µg/mL; in series [1] (pH 1.0 medium, 45 min), 1570 µg/mL. Further, the “concentration of lenvatinib” value in series [1] (pH 1.0 medium, 60 min) came out at 1600 µg/mL; in series [1] (setting [6]), 3.6 µg/mL; in series [1] (pH 6.8 medium, 10 min), 3.8 µg/mL; in series [1] (pH 6.8 medium, 15 min), 3.9 µg/mL; in series [1] (pH 6.8 medium, 20 min), 3.9 µg/mL; in series [1] (pH 6.8 medium, 30 min) it was 3.9 µg/mL. The “concentration of lenvatinib” value in series [1] (pH 6.8 medium, 45 min) was found to be 3.9 µg/mL; in series [1] (pH 6.8 medium, 60 min) it was 4 µg/mL. Besides, in series [2] (all conditions of Table 4), the “crystal transformation before and after the stability tests” value is given as “did not undergo crystal transformation”. Besides, the “Result of crystal form (XRPD)” value is listed as “No obvious change” in series [2] (high humidity 25° C., RH 93.5%, 1 month); “No obvious change” in series [2] (high humidity 25° C., RH 93.5%, 7 days); “No obvious change” in series [2] (strong light illumination, 7 days); “No obvious change” in series [2] (temperature 2~8° C., 10 days). The molecule further gave an AUC(0-t) in series [3] of 90900 ± 19600 ng·h/mL. In series [3], this molecule displayed a Cmax of 9.87 µg/mL. For the same molecule, the time to peak (Tmax) in series [3] was found to be 1.17 ± 0.41 h.
On to `COc1cc2nccc(Oc3ccc(NC(=O)NC4CC4)c(Cl)c3)c2cc1C(N)=O` [crystal form M, lenvatinib mesylate], for which the solubility result in series [4] is reported as “not evidently improved”.
With `COc1cc2nccc(Oc3ccc(NC(=O)NC4CC4)c(Cl)c3)c2cc1C(N)=O` [Crystal form C, lenvatinib mesylate, reference compound], the “concentration of lenvatinib” value in series [1] (setting [5]) was determined as 410 µg/mL; in series [1] (pH 1.0 medium, 10 min) it was 470 µg/mL; in series [1] (pH 1.0 medium, 15 min), 520 µg/mL; in series [1] (pH 1.0 medium, 20 min), 550 µg/mL; in series [1] (pH 1.0 medium, 30 min) it was 610 µg/mL; in series [1] (pH 1.0 medium, 45 min), 670 µg/mL. The “concentration of lenvatinib” value in series [1] (pH 1.0 medium, 60 min) was found to be 720 µg/mL; in series [1] (setting [6]) it was 2.7 µg/mL; in series [1] (pH 6.8 medium, 10 min) it was 3 µg/mL; in series [1] (pH 6.8 medium, 15 min), 3.1 µg/mL; in series [1] (pH 6.8 medium, 20 min), 3.2 µg/mL; in series [1] (pH 6.8 medium, 30 min) it was 3.3 µg/mL. The “concentration of lenvatinib” value in series [1] (pH 6.8 medium, 45 min) amounted to 3.4 µg/mL; in series [1] (pH 6.8 medium, 60 min), 3.5 µg/mL.

In general, AUC(0-t) refers to exposure summed from dosing to a finite time, without extrapolation to infinity. Read a low AUC(0-t) as less exposure. The term Cmax denotes the highest concentration seen after dosing. In general, Tmax refers to the time from dosing to the highest level.
